According to publication PMC12040169 (PLOS Biology, 2025):

Assay: in vitro
Settings: human, hela cells, % viability

Structure (SMILES) | viability at 28.5 h, 10 µM
Cc1cc(C(=O)N2CCN(C)CC2)ccc1-c1cnc(N)c(-c2ccc(O)cc2)n1 [CBK126749] | 94.8%
NS(=O)(=O)c1ccc(NC(=O)CCSc2ccc(Cl)cc2)cc1 [CBK269322] | 94.4%
CCn1nc(C)c(C(C)NC(=O)c2ccn(C(F)F)n2)c1C (stereo not shown) [CBK281534] | 79.8%
CC(=O)N1C[C@H](c2ccsc2)[C@H]2CN(Cc3cccs3)CC[C@H]21 [CBK284586] | 109%
Cn1c(C(=O)NCCc2cnccn2)cc2cc(Cl)ccc21 [CBK281575] | 90.9%
Cc1ccc(-c2ccc(CCC(=O)O)n2CC2CCCO2)cc1 (stereo not shown) [CBK268636] | 101%
CC(C(=O)N(CCC#N)Cc1cccnc1)n1cnc2ccccc21 (stereo not shown) [CBK304127] | 92.5%
Cc1c(Nc2cnn(C34CC5CC(CC(CC(=O)O)(C5)C3)C4)c(=O)c2Cl)c(=O)n(-c2ccccc2)n1C [CBK268707] | 89%
Cc1ccc(Cl)cc1NC(=O)c1cc([N+](=O)[O-])ccc1NCCN1C(=O)c2ccccc2C1=O [CBK268501] | 99.5%
O=C(Nc1nc2c(s1)CCCC2)c1ccccc1 [CBK287326] | 82.9%
COc1ccc(CN2CCC(Cc3ccccc3-c3cccc(F)c3)(C(N)=O)CC2)cc1 [CBK286277] | 99.8%
CCOC(=O)c1c(-c2ccc(OC)cc2)noc1C(O)c1ccccc1 (stereo not shown) [CBK002296] | 90.6%
Cc1ccc(CCC(=O)N2CCCCC2c2nc3ccccc3[nH]2)o1 (stereo not shown) [CBK282316] | 85.7%
CCOC(=O)CCCNC(=O)N1CCCC(C(=O)N(CC)CC)C1 (stereo not shown) [CBK156158] | 92.3%
Cc1cc(COc2nccnc2N2CCN(CC3CCCCC3)CC2)no1 [CBK084205] | 94.2%
CC(C)(C)OC(=O)NCc1ccc(CNCc2ccccc2C(F)(F)F)cc1 [CBK056703] | 92.2%
Nc1ccc2nc(CCCCCC(=O)O)sc2c1 [CBK016399] | 114%
CN1CCN(c2nc(-c3ccco3)cn3ccnc23)CC1 [CBK038045] | 83.7%
CCO[C@H]1CN(C)C[C@@H]1NC(=O)c1cccc2c1NCCC2 [CBK307269] | 90.4%
CC(=O)Nc1ccc(S(=O)(=O)Nc2ccc(C(=O)N3CCOCC3)cc2)cc1 [CBK034564] | 94.9%
CCOc1ccc(S(=O)(=O)N2CCCCC2)cc1-c1nc2c(C(C)(C)C)nn(C)c2c(=O)[nH]1 [CBK265119] | 113%
Cc1ccc(C(=O)C(C)OC(=O)c2cc(-c3ccccc3)nc3ccccc23)cc1 (stereo not shown) [CBK264067] | 99.8%

Structure (SMILES) | viability at 28.5 h, 10 µM
CNC(=O)CN1CCN(c2cc(C#N)ccc2C(F)(F)F)CC1=O [CBK306441] | 93.6%
Cc1ccccc1CN1CCC(NC(=O)Cn2cc(Br)ccc2=O)CC1 [CBK305716] | 93.1%
CCOc1ccc(NCc2ccccc2NS(=O)(=O)c2ccc(C)cc2)cc1 [CBK056876] | 93.6%
Cc1c(NC(=O)Nc2ccc(Cl)cc2)sc(=S)n1C [CBK027495] | 93.4%
O=C(NCc1nnc(-c2cccs2)o1)c1ccccc1-c1ccccc1 [CBK286293] | 112%
COc1cccc(C(NC(=O)c2cc(CN3CCOCC3)c(C)o2)c2ccccc2)c1 (stereo not shown) [CBK286279] | 93.4%
Cc1ccc(-n2ncc3c(=O)n(CC(=O)N4CCCCC4)cnc32)cc1 [CBK287532] | 101%
CN(C(=O)NC1CCCc2c1cnn2CCO)c1ccccc1F (stereo not shown) [CBK304024] | 109%
Cc1ccc2nc(-c3ccc(N4C(=O)CC(N5CCC(N6CCCCC6)CC5)C4=O)cc3)sc2c1 (stereo not shown) [CBK265315] | 114%
CC(C)c1ccc(N2C(=O)N[C@@H]3CCN(S(=O)(=O)c4ccccc4)[C@@H]3C2=O)cc1 [CBK289289] | 114%
CCCS(=O)(=O)N1CCCC(Cc2ccc(F)cc2F)(C(=O)OCC)C1 (stereo not shown) [CBK307221] | 85.5%
Cc1nnc2n1-c1ccccc1SC(c1ccccc1)C2 (stereo not shown) [CBK016040] | 92.9%
Cc1ccc(C2(C(=O)NCCCn3ccnc3C)CCOCC2)cc1 [CBK281588] | 91.6%
Cc1ccccc1C(=O)Nc1nc2ccc(S(C)(=O)=O)cc2s1 [CBK287337] | 95.1%
CCc1nc2c(Oc3nc4ccccc4s3)cccn2c1N(C)C(=O)C(C)C [CBK147765] | 88.5%
CC(C)(C)c1ccc(NC(=O)N(CCN)Cc2c[nH]c(-c3ccccc3)n2)cc1 [CBK046297C] | 64.9%
O=C(COc1cccnc1)N1CCc2ccccc21 [CBK200268] | 107%
COc1cc(/C=C/C(=O)NCc2ccccn2)cc(OC)c1OC [CBK264752] | 91.5%
O=S(=O)(CCN1CCN(C(c2ccccc2)c2ccccc2)CC1)c1ccc(Cl)cc1 [CBK074810] | 92%
Cc1nc(CC(=O)N2CCOC(c3ccc(F)cc3)C2)cs1 (stereo not shown) [CBK305759] | 106%
Cn1c(SCC(=O)N2CCN(Cc3ccccc3)CC2)nnc1-c1cccc([N+](=O)[O-])c1 [CBK267154] | 90.6%
COc1cccc(/C=C2/NC(=O)N(Cc3ccc(F)cc3)C2=O)c1OCc1cccc(C(=O)O)c1 [CBK265282] | 89.1%

Structure (SMILES) | viability at 28.5 h, 10 µM
CC(O)(CC(=O)O)CC(=O)OCCc1ccc2c(c1)CCC2 (stereo not shown) [CBK017766] | 95.2%
CC(=O)Nc1ccc(S(=O)(=O)N2CCC3(CC2)NC(=O)c2cc(-c4ccoc4)ccc2O3)cc1 [CBK115856] | 113%
O=C(C1CCCC1)N1CCCc2cc(C(O)CN3CCCC3)ccc21 (stereo not shown) [CBK282145] | 94.2%
O=C(Nc1nnc(C2=COCCO2)o1)c1ccc(-c2ccccc2)cc1 [CBK287407] | 84.5%
O=C(NC1Cc2ccccc2C1)c1ccno1 [CBK200358] | 99.4%
CC(=O)C1=C(O)C(=O)N(CCCC(=O)O)C1c1ccc(Br)cc1 (stereo not shown) [CBK286784] | 115%
Cc1ccc(-n2c(SCC(=O)N3CCc4ccccc43)nnc2-c2ccccc2O)c(C)c1 [CBK268793] | 108%
Cc1ccc(Oc2ccc(NC(=O)Cn3cnnc3C#N)cc2)cc1 [CBK295612] | 106%
COc1cc2c(cc1OC)CN(C(=O)c1cncnc1)CC2 [CBK122748] | 105%
COc1cc(CNc2ccc(N3CCCCC3)cc2)ccc1OCc1ccccc1F [CBK074472] | 95.5%
C=CCN1C(=O)CC2(C1=O)C(=O)N(Cc1ccc(S(=O)(=O)N(CC)CC)cc1)c1ccc(Cl)cc12 (stereo not shown) [CBK075412] | 98%
COCc1cccc(-c2ncc(OCC3COc4ccccc4O3)nc2N)c1 (stereo not shown) [CBK145113] | 93.1%
Nc1ccc(-c2cncc(NCCc3ccccn3)n2)cc1 [CBK065632] | 103%
Brc1ccc2[nH]c3c(c2c1)CCOC31CCN(CC2CCCCO2)CC1 (stereo not shown) [CBK040648] | 87.8%
Cc1nn(C)c(Cl)c1S(=O)(=O)NCCc1c[nH]c2ccccc12 [CBK067310] | 85.2%
CCOc1ccccc1Nc1nc(N)nc(CN2CCCCC2C)n1 (stereo not shown) [CBK266548] | 105%
COc1ccc(-c2nnc(SCCC(=O)O)[nH]2)cc1 [CBK300506] | 93.4%
O=C(CSc1n[nH]c(=O)n1Cc1ccccc1)NCc1ccc(-c2ccc(Cl)cc2)o1 [CBK296963] | 102%
Cn1c(=O)n(CCN2CCOCC2)c(=O)c2c1nc1n2CCN1c1ccc(Oc2ccccc2)cc1 [CBK269202] | 91.4%
O=C(Nc1ccc(S(=O)(=O)Nc2ncccn2)cc1)c1ccc(Cl)c([N+](=O)[O-])c1 [CBK263739] | 101%
CCCOC1CCCN(C(=O)c2cncc(F)c2)C1 (stereo not shown) [CBK304623] | 95%
O=C(Cc1cccc2ccccc12)NC(=S)Nc1ccc(S(=O)(=O)N2CCCCC2)cc1 [CBK266283] | 106%

Structure (SMILES) | viability at 28.5 h, 10 µM
COc1cc(CN2CCN(C/C=C/c3ccccc3)CC2)c([N+](=O)[O-])cc1OC [CBK261550] | 86.4%
Nc1ncc(-c2ccc(C(=O)N3CCOCC3)cc2)nc1C(=O)NC1CCCCC1 [CBK149160] | 89.3%
Cc1ccc(SCc2ccc(C(=O)Nc3ccccc3C(=O)N3CCCC3)cc2)cc1 [CBK268217] | 112%
c1cncc(CN2CCOC[C@H]2c2nc(-c3cccnc3)c[nH]2)c1 [CBK289323] | 86.3%
O=C1N[C@@H]2CCN(C(=O)CCn3ccccc3=O)C[C@@H]2CCCCCOc2ccccc21 [CBK292039] | 94.2%
c1coc(CN2CCC(c3ccc4c(c3)OCO4)CC2)c1 [CBK284001] | 90.3%
CC(C)(C)OC(=O)N1CCC[C@H]1C(=O)c1cccnc1 [CBK284280] | 99.3%
COc1ccccc1-c1[nH]nc(O)c1Cc1c(Cl)cccc1Cl [CBK107933] | 86.1%
Nc1ncc(-c2ccccc2CO)nc1N1CCN(CCO)CC1 [CBK063404] | 100%
CS(=O)(=O)N(CCc1ccccc1)CC(=O)O [CBK281244] | 109%
O=C(Nc1ccc2c(c1)OCCO2)c1cnc(-c2ccc(Cl)cc2)c(-c2cccnc2)c1 [CBK037528] | 110%
CCCC/C=C/c1cncc(N2CCN(c3ccccn3)CC2)n1 [CBK037276] | 117%
CC1(CNC(=O)c2cn3cc(Cl)ccc3n2)COC1 [CBK281748] | 91.4%
CN1C(=O)NC(c2ccc(Br)cc2)C2=C1CN(c1cccc(C(=O)O)c1)C2=O (stereo not shown) [CBK286729] | 84.3%
CCn1c(SCC(=O)Nc2ccccc2OC)nnc1-c1ccc(N)cc1 [CBK265859] | 111%
CCCN1CCC(NC(C)CCCC(C)(C)O)CC1 (stereo not shown) [CBK261932] | 99.3%
CN(C)C(=O)c1sc2ccccc2c1Cl [CBK067817] | 82.4%
O=C(CN1C(=O)COc2ccc(Cl)cc21)Nc1ccc2[nH]c(=O)[nH]c2c1 [CBK268295] | 111%
CCCC/C=C/c1nccnc1NCC1CC1 [CBK037268] | 100%
CN1CCCC(OC(=O)C2CCCCC2)C1 (stereo not shown) [CBK090234] | 104%
CCCc1nnc(SCC(=O)Nc2ccc(CN3CCOCC3)cc2)[nH]1 [CBK305583] | 82.4%
FC(F)(F)c1ccc2c(c1)nc(S)n2C1CC1 [CBK288483] | 86.2%
